Patent US5070207A, “Phospholipase A2 inhibitors” (American Home Products Corporation, priority 1990, dated 1991)
Like-named read-outs stand apart in the source and are kept apart here. Blank lines part the entries; values can stand above or below the molecule they belong to.

What was measured:
[1] = molecular target: T1, Human Synovial PLA2 (Homo sapiens, UniProt P14555); assay: in vitro isolated phospholipase A2 assay, human synovial fluid PLA2; assay type: biochemical; details: for inhibition at 10 µM: read-out: % Inhibition at 10 μM HSF
T1 construct: b) Purified human synovial fluid; from tissue; host or cells: human synovial fluid (purified)
T1 sequence (P14555 21-144): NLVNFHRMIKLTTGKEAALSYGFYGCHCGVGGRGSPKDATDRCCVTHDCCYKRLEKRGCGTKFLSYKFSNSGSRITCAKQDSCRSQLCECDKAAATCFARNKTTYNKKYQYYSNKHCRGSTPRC
Procedure: (§1) The compounds of the invention are tested in an in vitro isolated phospholipase A2 assay to determine the ability of the test compounds to inhibit the release of arachidonic acid from an arachidonic acid-containing substrate by the action of phospholipase A2 enzyme from human and non-human sources.
(§2) Into a 15 mL polypropylene tube are added the following:
(§3) ^6 Two human PLA2 enzymes are used:
b) Purified human synovial fluid.
(§4) Incubate the 100 μL reaction mixture for 10 minutes at 37° C. in a shaking water bath. The reaction is terminated by the addition of 2 mL tetrahydrofuran, followed by vortexing. NH2 columns (100 μg/mL-Analytichem International) are conditioned with 0.5 mL tetrahydrofuran followed by 0.5 mL tetrahydrofuran/water (2 mL:0.1 mL, v/v).
(§5) The sample is loaded onto the columns and slowly drawn through them. The hydrolyzed arachidonic acid retained in the columns is eluted therefrom with 1 mL tetrahydrofuran/glacial acetic acid (2%). The arachidonic acid is transferred to scintillation vials and quantitated by β-counting analysis. A "total counts" sample is prepared by pipetting 25 μL ^3 H-arachidonate E. coli directly into a scintillation vial to which is added 1 mL tetrahydrofuran. 10 mL aquasol (scintillation cocktail) is added to all samples.

[2] = molecular target: T2, Human Platelet PLA2 (Homo sapiens, UniProt P14555); assay: in vitro isolated phospholipase A2 assay, human platelet PLA2; assay type: biochemical; details: for inhibition at 10 µM: read-out: % Inhibition at 10 μM HP
T2 construct: a) Semipurified human platelet acid extract PLA2 (in 10 mM sodium; from tissue; host or cells: human platelets (acid extract, semipurified)
T2 sequence (P14555 21-144): T1 sequence (P14555 21-144)
Procedure: as §1, §2, §3
a) Semipurified human platelet acid extract PLA2 (in 10 mM sodium
acetate buffer, pH 4.5). Remove protein precipitate by centrifugation at
about 2200 rpm for 10 minutes.
as §4, §5

[3] = tested on: LTC4 (lipoxygenase pathway); assay: in vivo murine zymosan peritonitis assay, LTC4; set-up: species or system mouse (male CD-1); details: for ED50: Mus musculus, po, standard drugs
Procedure: (§6) The compounds of the invention are evaluated for their ability to inhibit the lipoxygenase and/or cyclooxygenase pathways of arachidonic acid metabolism in the in vivo murine zymosan peritonitis assay.
(§7) Male CD-1 mice (8 weeks old) are placed in plastic boxes in groups of six. Animals are injected with 1 mL i.p. of either 1% zymosan in pyrogen free 0.9% saline or saline (unstimulated control). Compounds are dosed orally 1 hour prior to zymosan injection. Twenty minutes after zymosan injection, the mice are asphyxiated by CO2 inhalation and the peritoneal cavity is lavaged with 2 mL ice cold Hanks Balanced Salt Solution (HBSS) without CaCl2, MgSO4 . 7H2 O and MgCl2 . 6H2 O. Peritoneal lavage fluid from each mouse is removed by syringe and placed in 5 mL plastic test tubes put on ice and volume is noted. Preparation of samples for evaluation by ELISA is as follows: Samples are centrifuged at 800 xg for 15 minutes; 1 mL of the supernatant is added to 8 mL ice cold methanol and kept at -70° C. overnight to precipitate protein; and samples are then centrifuged at 800 xg for 15 minutes, followed by a drying procedure in a Savant speed vac concentrator. The samples are reconstituted with 1 mL ice cold ELISA buffer and stored at -70° C. until assayed. The assay for eicosanoids (LTC4 and 6-keto-PGF1α) is performed according to conventional ELISA procedures.
(§8) Compounds to be tested orally are suspended in 0.5% Tween 80. Compounds to be tested intraperitoneally are suspended in 0.5% methylcellulose in 0.9% saline.
(§9) The total metabolite level in lavage fluid/mouse is calculated and the significance is determined by a one-way analysis of variance with LSD comparisons to control (p≤0.05). Drug effects are expressed as a percent change from control values.

[4] = tested on: T×B2 synthesis by rat glycogen-elicited polymorphonuclear leukocytes (PMN); assay: inhibition of synthesis of the cyclooxygenase product TxB2 by rat polymorphonuclear leukocytes; assay type: cell-based; details: Leukocyte
Procedure: The exudate is centrifuged at 400 xg for 10 minutes. The supernatant fluid is discarded and the cell pellet is resuspended to a concentration of 2.0×10^7 cells/mL in HBSS containing Ca^++ and Mg^++ and 10 μM L-cysteine. […] The reaction is terminated by centrifugation and pelleting cells. Supernatants are then analyzed by HPLC analysis on a 15 cm×4.6 mm ID supelcosil LC-18 (Supelco)(3M) column, using a two solvent system at a flow rate of 1.4 mL total flow as follows: […] In this assay, the procedure of Example 14 is carried out as described. […] The results are calculated as in Example 14 and presented below: […]

[5] = tested on: LTB4 synthesis by rat glycogen-elicited polymorphonuclear leukocytes (PMN); assay: inhibition of LTB4 synthesis by rat glycogen-elicited polymorphonuclear leukocytes; assay type: cell-based; details: Leukocyte
Procedure: Roy. Soc. Med., 74, 831 (1981)]. […] Accordingly, the specificity of action of PLA2 inhibitors can be determined by the activity of test compounds in this assay, which measures the ability of compounds to inhibit the synthesis of LTB4 by rat glycogen-elicited polymorphonuclear leukocytes (PMN) in the presence of exogenous substrate. […] The exudate is centrifuged at 400 xg for 10 minutes. The supernatant fluid is discarded and the cell pellet is resuspended to a concentration of 2.0×10^7 cells/mL in HBSS containing Ca^++ and Mg^++ and 10 μM L-cysteine. […] The reaction is terminated by centrifugation and pelleting cells. Supernatants are then analyzed by HPLC analysis on a 15 cm×4.6 mm ID supelcosil LC-18 (Supelco)(3M) column, using a two solvent system at a flow rate of 1.4 mL total flow as follows: Solvent A: 70:30 17.4 mM H3 PO4 :CH3 CN Solvent B. CH3 CN Gradient: (system is equilibrated with Solvent A) Percent solvent changes are accomplished in a linear fashion. […] 10^4 -2.0×10^4 dpm of eicosanoids of interest are injected in 90 μL EtOH cocktail. […] Results are expressed as percent inhibition at a given compound dose or as an IC50 value.

[6] = tested on: 6-keto-PGF1α /TxB2 (cyclooxygenase pathway); assay: in vivo murine zymosan peritonitis assay, 6-keto-PGF1α /TxB2; set-up: species or system mouse (male CD-1); details: for ED50: Mus musculus, po, read-out: ED50 6-keto-PGF1α /TxB2
Procedure: as §6, §7, §8, §9

[7] = human synovial fluid, read-out: IC50 HSF

SMILES: CCCCC/C=C\C/C=C\C/C=C\C/C=C\CCCC(=O)O [Arachidonic Acid, reference compound]
IC50 [1]: 3200 nM
IC50 [2]: 8600 nM

SMILES: NC1=NN(c2cccc(C(F)(F)F)c2)CC1 [BW755C]
ED50 [3]: < 10 mg/kg

SMILES: O=C(C#CCCCOc1ccc(Cl)cc1)C(F)(F)F [Example 1, 7-(4-Chlorophenoxy)-1,1,1-trifluoro-3-heptyn-2-one]
inhibition at 10 µM [4]: 24%
inhibition at 10 µM [5]: 89.8%
% Inhibition LTC4 ([3]; 100 mg/kg p.o.): 32%
IC50 [1, 7]: 490 nM
inhibition at 50 µM ([2]; at 50 μM, human platelet, read-out: % Inhibition HP): 54%
% Inhibition 6-keto-PGF ([6]; 100 mg/kg p.o.): 15%

SMILES: O=C(C#CCCCn1c2ccccc2c2ccccc21)C(F)(F)F [Example 2, 7-(9H-Carbazol-9-yl)-1,1,1-trifluoro-3-heptyn-2-one]
IC50 [1, 7]: 43 nM
inhibition at 10 µM ([2]; human platelet): 7.2%

SMILES: O=C(C#CCCCOc1ccc(F)cc1)C(F)(F)F [Example 3, 1,1,1-Trifluoro-7-(4-fluorophenoxy)-3-heptyn-2-one]
IC50 [1, 7]: 8900 nM

SMILES: CC(C)(C)c1ccc(OCCCC#CC(=O)C(F)(F)F)cc1 [Example 4, 7-[4-(1,1-Dimethylethyl)phenoxy]-1,1,1-trifluoro-3-heptyn-2-one]
IC50 [1, 7]: 200 nM

inhibition at 10 µM ([1]; human synovial fluid): 38.7%
SMILES: COc1ccc(OCCCC#CC(=O)C(F)(F)F)cc1 [Example 5, 1,1,1-Trifluoro-7-(4-methoxyphenoxy)-3-heptyn-2-one]

inhibition at 10 µM ([1]; human synovial fluid): 84.8%
SMILES: O=C(C#CCCCN1c2cccc3cccc(c23)S1(=O)=O)C(F)(F)F [Example 6, 1,1,1-Trifluoro-7-(2H-naphth[1,8-cd]isothiazol-2-yl)-3-heptyn-2-one S,S-dioxide]

SMILES: O=C(C#CCCCOc1ccc(Cl)cc1)C(F)(F)CCc1ccccc1 [Example 7, 9-(4-Chlorophenoxy)-3,3-difluoro-1-phenyl-5-nonyn-4-one]
inhibition at 10 µM [4]: 40%
inhibition at 10 µM [5]: 72%
IC50 [1, 7]: 900 nM

inhibition at 10 µM ([1]; human synovial fluid): 90.5%
SMILES: O=C(C#CCCCOc1cccc(C(F)(F)F)c1)C(F)(F)F [Example 8, 1,1,1-Trifluoro-7-[3-(trifluoromethyl)phenoxy]-3-heptyn-2-one]

inhibition at 10 µM ([1]; human synovial fluid): 19.8%
SMILES: CC(C)(C#CC(=O)C(F)(F)F)CCOc1ccc(Cl)cc1 [Example 9, 7-(4-Chlorophenoxy)-5,5-dimethyl-1,1,1-trifluoro-3-heptyne-2-one]

inhibition at 10 µM ([1]; human synovial fluid): 94.2%
SMILES: O=C(C#CCCCCOc1ccc(Cl)cc1)C(F)(F)F [Example 10, 8-(4-Chlorophenoxy)-1,1,1-trifluoro-3-octyn-2-one]

inhibition at 10 µM ([1]; human synovial fluid): 94.6%
inhibition at 10 µM ([2]; human platelet): 26.5%
SMILES: O=C(C#CCCCOc1ccc(Cl)c2ccccc12)C(F)(F)F [Example 11, 7-[(4-Chloro-1-naphthalenyl)oxy]-1,1,1-trifluoro-3-heptyn-2-one]

inhibition at 10 µM ([1]; human synovial fluid): 58.8%
SMILES: CC(C)(C#CC(=O)C(F)(F)F)Oc1ccc(OC(F)(F)F)cc1 [Example 12, 1,1,1-Trifluoro-5-methyl-5-[4-(trifluoromethoxy)phenoxy]-3-hexyn-2-one]

SMILES: CC(C)Cc1ccc(C(C)C(=O)O)cc1 (stereo not drawn) [Ibuprofen]
ED50 ([6]; standard drugs): 7 mg/kg

SMILES: COc1ccc2c(c1)c(CC(=O)O)c(C)n2C(=O)c1ccc(Cl)cc1 [Indomethacin]
ED50 [6]: 0.126 mg/kg

SMILES: CC(=CCCC1=CCC(C2=CC(=O)OC2O)OC1O)CCC1=C(C)CCCC1(C)C (stereo not drawn) [Monoalide, reference compound]
IC50 [1]: 140 nM
IC50 [2]: 25200 nM

SMILES: O=C1CCN(c2ccccc2)N1 [Phenidone]
ED50 [3]: 24 mg/kg
ED50 ([6]; standard drugs): < 30 mg/kg
